Literature values as cited in patent US11103473B2, “Treatment and prevention of autism and autism spectrum disorders” (ASDERA LLC, priority 2013, dated 2021).
Where two headings read alike, the source gives them in different places. Values belong to the compound of their own block, whether it stands above or below them.

Columns and labels:
[1] = for ulcerative index (UI): equimolar dose, prodrug vs parent NSAID
Mouse: writhing = settings: relative to parent
[2] = not given; remark: listed apart in the source
[3] = system: animal models of seizures; settings: in vivo
[4] = not given; remark: listed apart in the source
[5] = pH 7.1
[6] = for Cmax (μg/ml) / Tmax (h) / % excreted (5 d) / t1/2 (h): mean; for Cmax (μg/ml) / Tmax (h): Ito (1994); for % excreted (5 d): Sato (1997)
albumin = albumin (Homo sapiens, UniProt P02768)
albumin, sequence (P02768 25-609): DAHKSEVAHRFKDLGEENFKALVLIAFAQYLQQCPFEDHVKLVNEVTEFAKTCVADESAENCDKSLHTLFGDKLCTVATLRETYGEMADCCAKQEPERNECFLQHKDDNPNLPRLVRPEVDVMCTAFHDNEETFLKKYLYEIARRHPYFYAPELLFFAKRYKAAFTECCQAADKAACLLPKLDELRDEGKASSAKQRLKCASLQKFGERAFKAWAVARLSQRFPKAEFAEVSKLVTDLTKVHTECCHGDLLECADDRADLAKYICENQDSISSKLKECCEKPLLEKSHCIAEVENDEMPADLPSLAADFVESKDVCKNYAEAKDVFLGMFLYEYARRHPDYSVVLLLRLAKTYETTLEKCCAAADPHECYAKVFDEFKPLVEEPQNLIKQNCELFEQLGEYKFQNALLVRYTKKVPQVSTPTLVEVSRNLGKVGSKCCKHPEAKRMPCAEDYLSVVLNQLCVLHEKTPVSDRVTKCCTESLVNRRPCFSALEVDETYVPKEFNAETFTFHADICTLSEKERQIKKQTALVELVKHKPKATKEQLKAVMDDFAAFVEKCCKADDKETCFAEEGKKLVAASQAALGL

[7] = not given; remark: listed apart in the source
[8] = prodrug vs parent DCF
[9] = relative to parent, animal models

Compound: CC(C)Cc1ccc(C(C)C(=O)O)cc1 (stereo not shown) [ibuprofen, 2-[4-(2-methylpropyl)phenyl]propanoic acid]
ulcerative index (UI) [1]: 45.8

Compound: CC(C)c1c(CO)n(C)n(-c2ccccc2)c1=O [HMP, 3-hydroxymethyl propyphenazon]
average number of ulcers ([1]; in vivo): 1.25

Compound: CC(=O)Oc1ccccc1C(=O)O [Aspirin, 2-(acetyloxy)benzoic acid]
ulcerative index (UI) [1]: 57.4

Compound: Cc1cccc(Nc2ccccc2C(=O)O)c1C [MFA, 2-[(2,3-dimethylphenyl)amino]benzoic acid]
efficacy in animal models of seizures [3]: shown efficacy | apparent volume of distribution (Vzss/F) ([4]; 500 mg oral dose): 1.06 L/kg | time of peak levels (PL) ([4]; adults): 2 h | steady-state concentrations ([4]; adults, 1 g 4x daily, reached on the 2nd day): 20 µg/mL | plasma PL ([4]; after a 1 g oral dose): 10 to 20 µg/mL | time to plasma PL ([4]; after a 1 g oral dose): 2 to 4 h | drug accumulation ([4]; after multiple doses): no evidence of drug accumulation | elimination half-life ([4]; in vivo): ~2 h and ≈ 2 h | fecal route of elimination, share of the dose ([4]; mainly unconjugated 3-carboxy MFA): ≤ 20% | dose excreted into the urine as glucuronide of ([4]; share of MFA dose per species): 6% | dose excreted into the urine ([4]; total, primarily as glucuronides): Approximately 52% | mean absorption ([4]; two 500 mg single oral dose studies): 30.5 µg/h/mL | water solubility [5]: 0.004% | average number of ulcers ([1]; in vivo): 3.17 | Cmax ([6]; Healthy Adults (18-56 yr)): 10000 ng/mL | Tmax ([6]; Healthy Adults (18-56 yr)): 2.0 h | t1/2 ([6]; Healthy Adults (18-56 yr)): 2 to 4 h | Cmax (μg/ml) ([6]; Preterm Children (0-5 d)): 3.8 (12) μg/ml | Tmax (h) ([6]; Preterm Children (0-5 d)): 8.0 (12) h | % excreted (5 d) ([6]; Preterm Children (0-5 d)): 16.6 (5) % | t1/2 (h) ([6]; Preterm Children (0-5 d), bottom: Sato (1997)): 27.0 (5) h | t1/2 (h) ([6]; Preterm Children (0-5 d), top: Ito (1994)): 21.7 (12) h | Cmax (μg/ml) ([6]; Preterm Children (6-22 d)): 3.7 (5) μg/ml | Tmax (h) ([6]; Preterm Children (6-22 d)): 6.8 (5) h | % excreted (5 d) ([6]; Preterm Children (6-22 d)): 45.7 (1) % | t1/2 (h) ([6]; Preterm Children (6-22 d), bottom: Sato (1997)): 8.4 (1) h | t1/2 (h) ([6]; Preterm Children (6-22 d), top: Ito (1994)): 11.6 (5) h | bound to albumin (albumin): > 90%

The next lines start with results.

t1/2 [h] pH 7.5 (SIF) (simulated gi fluid): 7.1 h | GI risk vs MFA [1, 9]: 60% | t1/2 [h] pH 1.2 (SGF) ([2]; simulated gi fluid): 23.1 h
Compound: Cc1ccc(C(C)C)c(OC(=O)c2ccccc2Nc2cccc(C)c2C)c1 [MFA-thymol]
Rat: Hint paw vs MFA (Rat: Hint paw; relative to parent): 125% | Mouse: writhing vs MFA (Mouse: writhing): 150% | ulcer index vs parent drug ([1]; in vivo): better ulcer index than the parent drug

half-life in simulated intestinal fluid (simulated gi fluid, pH 7.4): 8.98 h | t1/2 [h] pH 7.5 (SIF) (simulated gi fluid): 9.0 h | GI risk vs MFA ([1]; in vivo): 30% | t1/2 [h] pH 1.2 (SGF) ([2]; simulated gi fluid): 18.7 h | half-life in simulated gastric fluid ([2]; simulated gi fluid, pH 1.2): 18.69 h
Compound: Cc1cccc(Nc2ccccc2C(=O)OCc2c(C(C)C)c(=O)n(-c3ccccc3)n2C)c1C [MFA-PPA Without spacer]
Rat: Hint paw vs MFA (Rat: Hint paw; @2-6 h): ≈60% | Mouse: writhing vs MFA (Mouse: writhing): 63% | average number of ulcers ([1]; in vivo): 1.00

t1/2 [h] pH 7.5 (SIF) (simulated intestinal fluid): 8.9 h | GI risk vs MFA [1, 9]: 50% | t1/2 [h] pH 1.2 (SGF) ([2]; simulated gastric fluid): 20.8 h
Compound: Cc1cccc(Nc2ccccc2C(=O)O[C@@H]2C[C@H](C)CC[C@H]2C(C)C)c1C [MFA-menthol]
Rat: Hint paw vs MFA (Rat: Hint paw; relative to parent): 115% | Mouse: writhing vs MFA (Mouse: writhing): 115% | ulcer index vs parent drug ([1]; in vivo): better ulcer index than the parent drug

t1/2 [h] pH 7.5 (serum/plasma) [7]: “shorter | GI risk vs MFA ([1]; in vivo): “no | t1/2 [h] pH 1.2 (SGF) ([2]; simulated gi fluid): “suffi-
Compound: CC(=O)Nc1ccc(OC(=O)c2ccccc2Nc2cccc(C)c2C)cc1 [MFA-APAP Without spacer]
Rat: Hint paw vs MFA (Rat: Hint paw; relative to parent): “better”

Cmax [8]: 20190 ± 6010 ng/mL
Compound: O=C(O)Cc1ccccc1Nc1c(Cl)cccc1Cl [DCF, 2-(2-[(2,6-dichlorophenyl)amino]phenyl)acetic acid]
gastric damage ([1]; 50 mg/kg): severe gastric damage | gastric damage ([1]; 200 mg/kg): markedly more damage
